This is an account of results in BindingDB's records for patent US20250257051 (1910 Genetics, 2025).

pKd: −log10 of the molar value.

For this test, the target named is T1, Non-receptor tyrosine-protein kinase TYK2 [556-888] (Homo sapiens, UniProt P29597).
T1 construct: 556-888
The experiment in a line: TYK2 JH2 Domain Binding Assay. The procedure: Binding constants for compounds disclosed herein against the JH2 domain are determined by the following protocol for a KINOMEscan assay (DiscoveRx). A fusion protein of a partial length construct of human TYK2 (JH2domain-pseudokinase) (amino acids G556 to D888 based on reference sequence NP 003322.3) and the DNA binding domain of NFkB is expressed in transiently transfected HEK293 cells. From these HEK 293 cells, extracts are prepared in M-PER extraction buffer (Pierce) in the presence of Protease Inhibitor Cocktail Complete (Roche) and Phosphatase Inhibitor Cocktail Set II (Merck) per manufacturers' instructions. The TYK2 (JH2domain-pseudokinase) fusion protein is labeled with a chimeric double-stranded DNA tag containing the NFkB binding site (5′-GGGAATTCCC-3′) fused to an amplicon for qPCR readout, which is added directly to the expression extract (the final concentration of DNA-tag in the binding reaction is 0.1 nM).

T1 sequence (P29597 556-888): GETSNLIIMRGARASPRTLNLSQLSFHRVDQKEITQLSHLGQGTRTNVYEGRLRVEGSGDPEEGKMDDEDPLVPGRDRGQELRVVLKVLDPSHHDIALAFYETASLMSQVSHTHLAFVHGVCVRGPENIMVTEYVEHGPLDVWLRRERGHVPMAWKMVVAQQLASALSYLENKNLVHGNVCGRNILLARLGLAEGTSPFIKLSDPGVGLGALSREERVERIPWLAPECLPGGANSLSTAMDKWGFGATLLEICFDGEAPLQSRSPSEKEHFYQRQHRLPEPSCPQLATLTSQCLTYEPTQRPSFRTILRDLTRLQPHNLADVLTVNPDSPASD

`COc1ccccc1Nc1nc(N2CCCNCC2)ncc1C(N)=O` [US20250257051, Compound 40] gave a pKd of 5.48.

Compound `CC(C)(C)OC(=O)N1CCCN(c2ncc(C(N)=O)c(Nc3ccccc3S(C)(=O)=O)n2)CC1` [US20250257051, Compound 65] showed a pKd of 5.54.

For the compound `CNC(=O)c1cnc(N2CCNCC2C)nc1Nc1ccc(C2CC2)nc1` (centres undefined) [US20250257051, Compound 14], the pKd was 4.72.

Compound `CNC(=O)c1cnc(N2CCCC2)nc1Nc1ccc(C2CC2)nc1` [US20250257051, Compound 10] gave a pKd of 6.43.
